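Tested at 5 concentrations; 48 h exposure; 96-well plates; endpoints linearly interpolated, else capped at highest concentration. Abbreviation: GI50, concentration required for 50% inhibition of growth.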 The source made the active and inactive calls. No stated cut-off is given here; in the data, active = GI50 up to about 1.1 µM and inactive = higher.
Assays:
Test in all cases: NCI anticancer screen, dose series, 48 h
MOLT-4 = tested on: MOLT-4
OVCAR-8 = tested on: OVCAR-8
MDA-MB-435 = tested on: MDA-MB-435
HCT-15 = tested on: HCT-15
SF-539 = tested on: SF-539
Hs-578T = tested on: Hs-578T
NCI-H460 = tested on: NCI-H460
HOP-92 = tested on: HOP-92
HCC 2998 = tested on: HCC 2998
RPMI-8226 = tested on: RPMI-8226
KM12 = tested on: KM12
LOX IMVI = tested on: LOX IMVI
786-0 = tested on: 786-0
RXF 393 = tested on: RXF 393
HL-60 = tested on: HL-60
UACC-62 = tested on: UACC-62
SNB-19 = tested on: SNB-19
SK-OV-3 = tested on: SK-OV-3
SN12C = tested on: SN12C
SW-620 = tested on: SW-620

Row | SMILES | GI50 (MOLT-4) | GI50 (OVCAR-8) | GI50 (MDA-MB-435) | GI50 (HCT-15) [µM] | GI50 (SF-539) | GI50 (Hs-578T) | GI50 (NCI-H460) | GI50 (HOP-92) | GI50 (HCC 2998) | GI50 (RPMI-8226) | GI50 (KM12) | GI50 (LOX IMVI) | GI50 (786-0) | GI50 (RXF 393) | GI50 (HL-60) | GI50 (UACC-62) | GI50 (SNB-19) | GI50 (SK-OV-3) | GI50 (SN12C) | GI50 (SW-620)
1 | CCN(CC)CCC1CCCCN1CC(=O)N1c2cc(Cl)ccc2NC(=O)CC1C (centres undefined) | > 100 µM (inactive) | > 100 µM (inactive) | > 100 µM (inactive) | > 100 | > 100 µM (inactive) | > 100 µM (inactive) | > 100 µM (inactive) | > 100 µM (inactive) | > 100 µM (inactive) | > 100 µM (inactive) | > 100 µM (inactive) | > 100 µM (inactive) | > 100 µM (inactive) | > 100 µM (inactive) | > 100 µM (inactive) | > 100 µM (inactive) | > 100 µM (inactive) | > 100 µM (inactive) | > 100 µM (inactive) | 
2 | COc1ccc(N2CCN(Cc3c(C(C)=O)[n+]([O-])c4ccccc4[n+]3[O-])CC2)cc1 |  | 28.7 µM (inactive) | 32.6 µM (inactive) | 47.1 |  | 25.2 µM (inactive) | 87.5 µM (inactive) | 32.5 µM (inactive) | > 100 µM (inactive) | > 100 µM (inactive) | 48.1 µM (inactive) | 56.4 µM (inactive) | 53.5 µM (inactive) | 17 µM (inactive) | > 100 µM (inactive) | 71.6 µM (inactive) | 35.3 µM (inactive) | 32.3 µM (inactive) | 41.2 µM (inactive) | 42.2 µM (inactive)
3 | O=C(O)CCC1(C(=O)O)CCC(=O)c2ccccc21 (centres undefined) |  | > 100 µM (inactive) | > 100 µM (inactive) | > 100 | > 100 µM (inactive) | > 100 µM (inactive) | > 100 µM (inactive) | > 100 µM (inactive) | > 100 µM (inactive) | > 100 µM (inactive) | > 100 µM (inactive) | > 100 µM (inactive) | > 100 µM (inactive) | > 100 µM (inactive) | > 100 µM (inactive) | > 100 µM (inactive) | > 100 µM (inactive) | > 100 µM (inactive) | > 100 µM (inactive) | > 100 µM (inactive)
4 | CCCCC[C@@H]1OC(=O)[C@@]2(CC3c4ccccc4C2c2ccccc23)[C@H]1C(=O)OC | > 10 µM (inactive) | 79.1 µM (inactive) | 93.1 µM (inactive) | 29.9 |  | > 100 µM (inactive) | 11.6 µM (inactive) | > 100 µM (inactive) | 23.6 µM (inactive) | 9.68 µM (inactive) | 45.7 µM (inactive) | 71.4 µM (inactive) | 67.3 µM (inactive) | 24.6 µM (inactive) | 6.35 µM (inactive) | 9.29 µM (inactive) | > 100 µM (inactive) | 84.7 µM (inactive) | 74.3 µM (inactive) | 52 µM (inactive)
5 | COC(=O)C(Cc1c(C2Nc3ccccc3C2CC(NC(=O)CNC(C)=O)C(=O)OC)[nH]c2ccccc12)NC(=O)CNC(C)=O (centres undefined) |  | > 100 µM (inactive) | > 100 µM (inactive) | > 100 | > 100 µM (inactive) | > 72.6 µM (inactive) | > 100 µM (inactive) | > 100 µM (inactive) | > 100 µM (inactive) | > 100 µM (inactive) | > 100 µM (inactive) | > 100 µM (inactive) | > 100 µM (inactive) | > 100 µM (inactive) | > 26.6 µM (inactive) | > 100 µM (inactive) | > 100 µM (inactive) | > 100 µM (inactive) | > 100 µM (inactive) | > 100 µM (inactive)
6 | CSc1[nH]nc(N)c1C(=O)Nc1ccc(C)cc1 | 26.2 µM (inactive) |  | 30.9 µM (inactive) | 51.3 | > 100 µM (inactive) | > 100 µM (inactive) | 60.1 µM (inactive) | 19.5 µM (inactive) | 76.9 µM (inactive) | 51.3 µM (inactive) |  | 38.6 µM (inactive) | 49.4 µM (inactive) | 97.9 µM (inactive) | 39.3 µM (inactive) | > 100 µM (inactive) | > 100 µM (inactive) | > 100 µM (inactive) | 96.4 µM (inactive) | 48.1 µM (inactive)
7 | Nc1ncnc2c1ncn2-c1ccc([N+](=O)[O-])cn1 |  | > 100 µM (inactive) | > 100 µM (inactive) | > 100 | > 100 µM (inactive) | 61.9 µM (inactive) | > 100 µM (inactive) | > 100 µM (inactive) | > 100 µM (inactive) | > 100 µM (inactive) | > 100 µM (inactive) | > 100 µM (inactive) | > 100 µM (inactive) | > 100 µM (inactive) | > 100 µM (inactive) | > 100 µM (inactive) | > 100 µM (inactive) | > 100 µM (inactive) | > 100 µM (inactive) | > 100 µM (inactive)
8 | CC(C)CC(=O)NC(NC(C)C)(C(F)(F)F)C(F)(F)F | > 100 µM (inactive) | > 100 µM (inactive) | > 100 µM (inactive) | > 100 | > 100 µM (inactive) | > 100 µM (inactive) | > 100 µM (inactive) | > 100 µM (inactive) | > 100 µM (inactive) | > 100 µM (inactive) | > 100 µM (inactive) | > 100 µM (inactive) | > 100 µM (inactive) | > 100 µM (inactive) | 60.5 µM (inactive) | > 100 µM (inactive) | > 100 µM (inactive) |  | > 100 µM (inactive) | > 100 µM (inactive)
9 | [C-]#[N+]C1(C(=O)OCC)CC1 | > 100 µM (inactive) | > 100 µM (inactive) | > 100 µM (inactive) | > 100 | > 100 µM (inactive) | > 100 µM (inactive) | > 100 µM (inactive) | > 100 µM (inactive) | > 100 µM (inactive) | > 100 µM (inactive) |  | > 100 µM (inactive) | > 100 µM (inactive) | > 100 µM (inactive) | > 100 µM (inactive) | > 100 µM (inactive) | > 100 µM (inactive) |  | > 100 µM (inactive) | > 100 µM (inactive)
10 | O=C(/C(Cl)=C/c1ccccc1)c1ccccc1 | 2.61 µM (inactive) | 2.84 µM (inactive) | 3.01 µM (inactive) | 2.47 | 3.03 µM (inactive) | 3.54 µM (inactive) | 8.71 µM (inactive) | 3.13 µM (inactive) | 6.68 µM (inactive) | 2.33 µM (inactive) | 4.08 µM (inactive) | 2.11 µM (inactive) | 1.53 µM (inactive) | 2.46 µM (inactive) |  | 8.55 µM (inactive) | 15.1 µM (inactive) | 19.7 µM (inactive) | 1.82 µM (inactive) | 1.84 µM (inactive)
11 | Cc1ccc(C(O)c2cnc(C)n2Cc2ccccc2)cc1 (centres undefined) |  | > 100 µM (inactive) | > 100 µM (inactive) | > 100 | > 100 µM (inactive) | > 100 µM (inactive) | > 100 µM (inactive) | > 100 µM (inactive) | > 100 µM (inactive) | 46 µM (inactive) | > 100 µM (inactive) | > 100 µM (inactive) | > 100 µM (inactive) | > 100 µM (inactive) | 6.43 µM (inactive) | > 100 µM (inactive) | > 100 µM (inactive) | > 100 µM (inactive) | > 100 µM (inactive) | > 100 µM (inactive)
12 | COc1ccc(/N=C2\C(=N/c3ccc(OC)cc3)N(c3ccccc3[N+](=O)[O-])C(=S)N2c2ccc(OC)cc2)cc1 | 21.8 µM (inactive) | > 100 µM (inactive) | > 100 µM (inactive) | > 100 | > 100 µM (inactive) | > 100 µM (inactive) |  | > 100 µM (inactive) | > 100 µM (inactive) | > 100 µM (inactive) | > 100 µM (inactive) |  | > 100 µM (inactive) | 23.9 µM (inactive) |  | 78.9 µM (inactive) | > 100 µM (inactive) | > 100 µM (inactive) | > 100 µM (inactive) | > 100 µM (inactive)
13 | COc1ccc(N2C(=O)C3c4[nH]c5ccccc5c4C4C(C)CCCC4C3C2=O)cc1 (centres undefined) | 7.21 µM (inactive) | 34 µM (inactive) | 3.46 µM (inactive) | > 34 | > 43.4 µM (inactive) | 19.8 µM (inactive) | > 63.8 µM (inactive) | 35.1 µM (inactive) | > 100 µM (inactive) | 12.8 µM (inactive) | 13.8 µM (inactive) | 46.5 µM (inactive) | 17.5 µM (inactive) | > 26.6 µM (inactive) |  | 48.8 µM (inactive) | > 44.6 µM (inactive) | > 81.3 µM (inactive) | 40.9 µM (inactive) | > 53 µM (inactive)
14 | C=C(Br)COc1ccc2c(C)cc(=O)oc2c1 | 34.4 µM (inactive) | 47.9 µM (inactive) | 56.1 µM (inactive) | 57.7 | 67 µM (inactive) | 90.6 µM (inactive) | 88.5 µM (inactive) | 12.5 µM (inactive) | 95.3 µM (inactive) | 44.6 µM (inactive) | 0.319 µM (active) | > 100 µM (inactive) | > 100 µM (inactive) | 0.0721 µM (active) | 40.2 µM (inactive) |  | > 100 µM (inactive) |  | > 100 µM (inactive) | > 100 µM (inactive)
15 | Cn1c(=O)nc2n(CCO)c(-c3ccccc3)c(-c3ccccc3)nc-2c1=O | > 100 µM (inactive) | > 100 µM (inactive) | > 100 µM (inactive) | > 100 | > 100 µM (inactive) | 86.3 µM (inactive) | 39.1 µM (inactive) | > 100 µM (inactive) | > 100 µM (inactive) | > 100 µM (inactive) | > 100 µM (inactive) | > 100 µM (inactive) | > 100 µM (inactive) | > 100 µM (inactive) |  | > 100 µM (inactive) | > 100 µM (inactive) | > 100 µM (inactive) | > 100 µM (inactive) | > 100 µM (inactive)
